Source: US8354414B2, “Substituted bicyclic pyrimidines” (Cephalon, Inc, priority 2006, dated 2013)
Where two headings read alike, the source gives them in different places.

How the values were obtained:
CDK5/GST-p25 = biological target: T1, CDK5/GST-p25 (Homo sapiens, UniProt Q00535); assay: Inhibition of CDK5/GST-p25 kinase activity (ELISA with time-resolved fluorescence readout); format: biochemical
T1 construct: The final construct, encoding for full-length human CDK5; made in house; host or cells: Sf21 insect cells (baculovirus co-infection)
T1 sequence (Q00535 whole entry): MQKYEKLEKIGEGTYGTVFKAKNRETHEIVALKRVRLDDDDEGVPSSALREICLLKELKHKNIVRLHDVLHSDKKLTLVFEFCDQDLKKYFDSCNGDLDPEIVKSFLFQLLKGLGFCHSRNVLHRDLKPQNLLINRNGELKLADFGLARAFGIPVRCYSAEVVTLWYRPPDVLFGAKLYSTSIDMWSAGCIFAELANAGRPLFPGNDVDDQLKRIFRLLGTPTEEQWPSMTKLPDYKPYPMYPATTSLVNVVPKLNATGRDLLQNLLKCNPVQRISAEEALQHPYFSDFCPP
T1 sequence (Q15078 108-307 partner limits assumed): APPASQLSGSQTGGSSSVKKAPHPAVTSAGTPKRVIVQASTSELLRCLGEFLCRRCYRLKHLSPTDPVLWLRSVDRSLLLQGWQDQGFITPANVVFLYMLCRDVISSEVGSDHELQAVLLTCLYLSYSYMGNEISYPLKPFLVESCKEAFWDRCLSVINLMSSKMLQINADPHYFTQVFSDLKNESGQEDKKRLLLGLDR
How it was run: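 The substrate, GST-Rb(773-928), was immobilised on plates and phosphorylated for 20 min at 37 °C by 2 ng/ml CDK5/GST-p25 in HEPES pH 7.2 with 10 µM ATP and 10 mM MgCl2. Both proteins were human and co-expressed in insect cells. Ser-780 phosphorylation was read by europium time-resolved fluorescence and converted to IC50.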

His6-GSK-3β = biological target: T2, His6-GSK-3β (Homo sapiens, UniProt P49841); assay: Inhibition of His6-GSK-3β kinase activity (ELISA-based format, time-resolved fluorescence readout); format: biochemical; settings: read-out: GSK3β IC50
T2 construct: made in house; host or cells: Sf21 insect cells (baculovirus)
T2 sequence (P49841 2-419): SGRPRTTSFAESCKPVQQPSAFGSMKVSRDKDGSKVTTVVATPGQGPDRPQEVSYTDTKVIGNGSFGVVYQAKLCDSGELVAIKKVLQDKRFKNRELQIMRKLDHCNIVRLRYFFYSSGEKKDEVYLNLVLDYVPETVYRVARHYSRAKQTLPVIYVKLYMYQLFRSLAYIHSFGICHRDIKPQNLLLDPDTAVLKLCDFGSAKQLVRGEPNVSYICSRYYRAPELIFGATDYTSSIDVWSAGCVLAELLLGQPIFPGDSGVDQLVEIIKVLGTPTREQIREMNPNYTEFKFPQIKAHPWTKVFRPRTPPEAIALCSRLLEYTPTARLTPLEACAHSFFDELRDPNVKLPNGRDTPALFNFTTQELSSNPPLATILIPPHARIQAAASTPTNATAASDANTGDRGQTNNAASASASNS
How it was run: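 Plate-bound recombinant GST-Rb substrate was phosphorylated for 30 min at 37° C by baculovirus-expressed His6-GSK-3β (200 ng/ml) at 20 μM ATP, 10 mM MgCl2, 2.5% DMSO. Europium time-resolved fluorescence of anti-phospho-Ser780 Rb signal gave inhibition, fitted to IC50.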

Compound | IC50 (CDK5/GST-p25; class symbols) [nM] | melting point | IC50 (His6-GSK-3β; class symbols) [nM] | IC50 (CDK5/GST-p25; numeric bounds) [nM] | IC50 (His6-GSK-3β; numeric bounds) [nM]
CCCn1cc2c(C3C(=O)Nc4ccc(Br)cc43)ncnc2n1 (stereo not drawn) [Example 97, 5-Bromo-3-(2-propyl-2H-pyrazolo[3,4-d]pyrimidin-4-yl)-1,3-dihydro-indol-2-one] | < 300 | > 300 °C | < 300 | – | –
Cl.NCCNc1nc(C2C(=O)Nc3ccc(C(F)(F)F)cc32)c2cn(C3CCCC3)nc2n1 (stereo not drawn) [Example 252, 3-[6-(2-Amino-ethylamino)-2-cyclopentyl-2H-pyrazolo[3,4-d]pyrimidin-4-yl]-5-trifluoromethyl-1,3-dihydroindol-2-one hydrochloride salt] | 300 to 3000 | 290 to 293 °C | < 300 | – | –
CCCn1cc2c(C3C(=O)Nc4ccc(C#N)cc43)nc(NCCc3cccnc3)nc2n1 (stereo not drawn) [Example 185, 2-Oxo-3-[2-propyl-6-(2-pyridin-3-yl-ethylamino)-2H-pyrazolo [3,4-d]pyrimidin-4-yl]-2,3-dihydro-1H-indole-5-carbonitrile] | < 300 | 302 to 305 °C | < 300 | – | –
Cn1cc2c(C3C(=O)Nc4ccc(C#N)cc43)ncnc2n1 (stereo not drawn) [Example 84, 3-(2-Methyl-2H-pyrazolo [3,4-d]pyrimidin-4-yl)-2-oxo-2,3-dihydro-1H-indole-5-carbonitrile] | < 300 | > 350 °C | 300 to 3000 | – | –
O=C1Nc2ccccc2C1c1nc(NCCCN2CCOCC2)nc2nn(C3CCCC3)cc12 (stereo not drawn) [Example 157, 3-[2-cyclopentyl-6-(3-morpholin-4-yl-propylamino)-2H-pyrazolo[3,4-d]pyrimidin-4-yl]-1,3-dihydro-indol-2-one] | – | 242 to 245 °C | 300 to 3000 | > 3000 | –
CCCn1cc2c(C3C(=O)Nc4ccc(Br)cc43)nc(NCCc3cccnc3)nc2n1 (stereo not drawn) [Example 189, 5-Bromo-3-[2-propyl-6-(2-pyridin-3-yl-ethylamino)-2H-pyrazolo [3,4-d]pyrimidin-4-yl]-1,3-dihydro-indol-2-one] | < 300 | 294 to 297 °C | < 300 | – | –
O=C1Nc2c(cc([N+](=O)[O-])cc2[N+](=O)[O-])C1c1ncnc2c1cnn2C1CCCC1 (stereo not drawn) [Example 60, 3-(1-cyclopentyl-1H-pyrazolo[3,4-d]pyrimidin-4-yl)-5,7-dinitro-1,3-dihydro-indol-2-one] | > 10000 | 242 to 246 °C | > 10000 | – | –
Cn1nc([N+](=O)[O-])c2c(C3C(=O)Nc4ccc(C#N)cc43)ncnc21 (stereo not drawn) [Example 148, 3-(1-Methyl-3-nitro-1H-pyrazolo[3,4-d]pyrimidin-4-yl)-2-oxo-2,3-dihydro-1H-indole-5-carbonitrile] | > 10000 | > 300 °C (dec.) | > 10000 | – | –
CC(C)Nc1nc(C2C(=O)Nc3ccc(C(F)(F)F)cc32)c2cn(C3CCCC3)nc2n1 (stereo not drawn) [Example 250, 3-(2-Cyclopentyl-6-isopropylamino-2H-pyrazolo[3,4-d]pyrimidin-4-yl)-5-trifluoromethyl-1,3-dihydro-indol-2-one] | > 10000 | 299 to 301 °C | < 300 | – | –
O=C1Nc2ccc(Cl)cc2C1c1ncnc2nn(C3CCCC3)cc12 (stereo not drawn) [Example 36, 5-Chloro-3-(2-Cyclopentyl-2H-pyrazolo [3,4-d]pyrimidin-4-yl)-2-oxo-1,3-dihydro-indol-2-one] | < 300 | 290 to 292 °C | < 300 | – | –
CCCn1cc2c(C3C(=O)Nc4ccc(Br)cc43)nc(Cl)nc2n1 (stereo not drawn) [Example 188, 5-Bromo-3-(6-chloro-2-propyl-2H-pyrazolo[3,4-d]pyrimidin-4-yl)-1,3-dihydro-indol-2-one] | > 10000 | > 300 °C | – | – | > 3000
CCOCCn1cc2c(C3C(=O)Nc4ccc(Cl)cc43)nc(NC[C@@H](C)O)nc2n1 (stereo partly drawn) [Example 218, 5-Chloro-3-[2-(2-ethoxy-ethyl)-6-((R)-2-hydroxy-propylamino)-2H-pyrazolo[3,4-d]pyrimidin-4-yl]-1,3-dihydro-indol-2-one] | < 300 | > 300 °C | < 300 | – | –
CCCn1cc2c(C3C(=O)Nc4ccc(Br)cc43)nc(NCc3cccnc3)nc2n1 (stereo not drawn) [Example 196, 5-Bromo-3-{2-propyl-6-[(pyridin-3-ylmethyl)-amino]-2H-pyrazolo[3,4-d]pyrimidin-4-yl}-1,3-dihydro-indol-2-one] | < 300 | 277 to 281 °C | < 300 | – | –
COCCN(CCOC)c1nc(C2C(=O)Nc3ccc(C#N)cc32)c2cn(C3CCCC3)nc2n1 (stereo not drawn) [Example 167, 3-{6-[bis-(2-methoxyethyl)amino]-2-cyclopentyl-2H-pyrazolo[3,4-d]pyrimidin-4-yl}-2-oxo-2,3-dihydro-1H-indole-5-carbonitrile] | – | 248.5 to 249 °C | < 300 | > 3000 | –
O=C1Nc2ccc(Br)cc2C1c1ncnc2c1cnn2C1CCCC1 (stereo not drawn) [Example 54, 5-Bromo-3-(1-cyclopentyl-1H-pyrazolo[3,4-d]pyrimidin-4-yl)-1,3-dihydro-indol-2-one] | – | 287 to 290 °C | > 10000 | > 3000 | –
CC(C)n1cc2c(C3C(=O)Nc4ccc(C#N)cc43)ncnc2n1 (stereo not drawn) [Example 382, 3-(2-Isopropyl-2H-pyrazolo[3,4-d]pyrimidin-4-yl)-2-oxo-2,3-dihydro-1H-indole-5-carbonitrile] | < 300 | > 300 °C | 300 to 3000 | – | –
N#Cc1ccc2c(c1)C(c1nc(OCCc3cccnc3)nc3nn(C4CCCC4)cc13)C(=O)N2 (stereo not drawn) [Example 164, 3-[2-cyclopentyl-6-(2-pyridin-3-yl-ethoxy)-2H-pyrazolo [3,4-d]pyrimidin-4-yl]-2-oxo-2,3-dihydro-1H-indole-5-carbonitrile] | > 10000 | 302 to 304 °C | < 300 | – | –
CCCn1cc2c(C3C(=O)Nc4ccc(S(=O)(=O)N(C)C)cc43)nc(Cl)nc2n1 (stereo not drawn) [Example 204, 3-(6-Chloro-2-propyl-2H-pyrazolo [3,4-d]pyrimidin-4-yl)-2-oxo-2,3-dihydro-1H-indole-5-sulfonic acid dimethylamide] | 300 to 3000 | > 300 °C | – | – | > 3000
N#Cc1ccc2c(c1)C(c1ncnc3c1cnn3C1CCCC1)C(=O)N2 (stereo not drawn) [Example 55, 3-(1-Cyclopentyl-1H-pyrazolo[3,4-d]pyrimidin-4-yl)-2-oxo-2,3-dihydro-1H-indole-5-carbonitrile] | > 10000 | > 300 °C | 300 to 3000 | – | –
CCCCCn1cc2c(C3C(=O)Nc4ccc(C#N)cc43)nc(NCc3ccncc3)nc2n1 (stereo not drawn) [Example 292, 2-Oxo-3-{2-pentyl-6-[(pyridin-4-ylmethyl)-amino]-2H-pyrazolo [3,4-d]pyrimidin-4-yl}-2,3-dihydro-1H-indole-5-carbonitrile] | < 300 | 288 to 290 °C (dec.) | < 300 | – | –
O=C1Nc2ccc(F)c(F)c2C1c1ncnc2c1cnn2C1CCCC1 (stereo not drawn) [Example 67, 3-(1-Cyclopentyl-1H-pyrazolo[3,4-d]pyrimidin-4-yl)-4,5-difluoro-1,3-dihydro-indol-2-one] | > 10000 | > 300 °C | > 10000 | – | –
CCCn1cc2c(C3C(=O)Nc4ccc(C#N)cc43)ncnc2n1 (stereo not drawn) [Example 96, 3-(2-propyl-1H-pyrazolo[3,4-d]pyrimidin-4-yl)-2-oxo-2,3-dihydro-1H-indole-5-carbonitrile] | < 300 | > 300 °C | < 300 | – | –
CC(C)Cn1cc2c(C3C(=O)Nc4ccc(Cl)cc43)nc(Cl)nc2n1 (stereo not drawn) [Example 261, 5-Chloro-3-(6-chloro-2-isobutyl-2H-pyrazolo[3,4-d]pyrimidin-4-yl)-1,3-dihydro-indol-2-one] | > 10000 | 284 °C (dec.) | – | – | > 3000
O=c1[nH]c2ccccc2n1-c1ncnc2nn(C3CCCC3)cc12 [Example 44, 1-(2-Cyclopentyl-2H-pyrazolo[3,4-d]pyrimidin-4-yl)-1,3-dihydro-benzoimidazol-2-one] | > 10000 | 236 to 240 °C | > 10000 | – | –
CNCCCNc1nc(C2C(=O)Nc3ccc(Br)cc32)c2cn(CC(C)C)nc2n1 (stereo not drawn) [Example 267, 5-Bromo-3-[2-isobutyl-6-(3-methylamino-propylamino)-2H-pyrazolo[3,4-d]pyrimidin-4-yl]-1,3-dihydro-indol-2-one] | < 300 | 240 to 259 °C | < 300 | – | –
O=C1Nc2ccc(F)cc2C1c1ncnc2c1cnn2C1CCCC1 (stereo not drawn) [Example 65, 3-(1-Cyclopentyl-1H-pyrazolo[3,4-d]pyrimidin-4-yl)-5-fluoro-1,3-dihydro-indol-2-one] | > 10000 | 254 to 257 °C | > 10000 | – | –
CCOCCn1cc2c(C3C(=O)Nc4ccc(Cl)cc43)nc(NCCN(C)C)nc2n1 (stereo not drawn) [Example 216, 5-Chloro-3-[6-(2-dimethylamino-ethylamino)-2-(2-ethoxy-ethyl)-2H-pyrazolo[3,4-d]pyrimidin-4-yl]-1,3-dihydro-indol-2-one] | 300 to 3000 | 293 to 295 °C | 300 to 3000 | – | –
